# Read-outs that look alike come from different tables or passages of the source.
# Tests used:
# [1] = molecular target: T1, human OX2 receptor (Homo sapiens, UniProt O43614); assay: Measurement of orexin type 2 receptor agonist activity (Experimental Example 2; Fluo-4 AM calcium fluorescence, FDSS μCELL); type: cell-based; conditions: compound at 3 μM; CHO cells expressing human OX2 receptor; DMSO = 0%, 10 nM orexin A (human) = 100%
# T1 construct: expressed in transfected cells
# T1 sequence (O43614 1-444): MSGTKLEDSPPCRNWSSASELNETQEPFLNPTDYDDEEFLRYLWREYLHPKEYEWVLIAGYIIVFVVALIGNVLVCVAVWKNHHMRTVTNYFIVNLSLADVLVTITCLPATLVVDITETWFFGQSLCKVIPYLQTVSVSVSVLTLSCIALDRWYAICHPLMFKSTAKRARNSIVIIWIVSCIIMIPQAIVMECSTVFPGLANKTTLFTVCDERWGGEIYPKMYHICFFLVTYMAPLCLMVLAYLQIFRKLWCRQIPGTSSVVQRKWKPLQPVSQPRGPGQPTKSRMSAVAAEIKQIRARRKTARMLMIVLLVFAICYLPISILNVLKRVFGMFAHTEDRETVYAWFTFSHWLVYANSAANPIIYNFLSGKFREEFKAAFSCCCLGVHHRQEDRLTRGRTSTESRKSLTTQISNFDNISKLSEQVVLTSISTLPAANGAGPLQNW
# How it was run: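 Agonism was tested in CHO-K1 cells stably expressing human OX2 receptor (residues 1-444), loaded with Fluo-4 AM plus probenecid. Calcium fluorescence was recorded for 1 min 40 s after compound addition. Activity (%) was scaled between DMSO (0%) and 10 nM orexin A (100%) and reported at 3 μM compound.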
"OX2R agonist activity (3 μM, %) [1] [%]",Compound,other results
100,"Cc1ccc2nc1OCc1cccc(c1)C[C@H]1[C@@H](NS(C)(=O)=O)CCN1C(=O)NC2 [Example 68, N-[(16aS,17S)-7-methyl-1-oxo-2,3,16a,17,18,19-hexahydro-1H,10H,16H-4,8-(azeno)-11,15-(metheno)pyrrolo[1,2-j][1,8,10]oxadiazacyclo-octadecin-17-yl]methanesulfonamide]","ring closure, yield of all isomers (from Cc1ccc(CNC(=O)OC(C)(C)C)nc1OCc1cccc(C[C@H]2[C@@H](N(COCC[Si](C)(C)C)S(C)(=O)=O)CCN2C(=O)OC(C)(C)C)c1, other bond, di(N-succinimidyl) carbonate / N-methylmorpholine, DIPEA, THF, 7.5 mM, 25.0 °C, 17.0 h, 2 steps): 3.7%"
96,"Cc1ccc2nc1Oc1cccc(c1F)C[C@H]1[C@@H](NS(C)(=O)=O)[C@@H](F)CN1C(=O)NC2 [Example 10, N-[(15aS,16R,17S)-17,20-difluoro-7-methyl-1-oxo-2,3,15a,16,17,18-hexahydro-1H,15H-4,8-(azeno)-14,10-(metheno)pyrrolo[1,2-j][1,8,10]oxadiazacyclo-heptadecin-16-yl]methanesulfonamide]","ring closure, yield of all isomers (from Cc1ccc(CN)nc1Oc1cccc(C[C@@H]2NC[C@H](F)[C@@H]2NS(C)(=O)=O)c1F, other bond, CDI, THF, 2.12 mM, 25.0 °C, 18.0 h): 16.7%"
100,"CCS(=O)(=O)N[C@H]1[C@@H](F)CN2C(=O)NCc3ccc(C)c(n3)Cc3cccc(c3F)C[C@@H]12 [Example 56, N-[(15aS,16R,17S)-17,20-difluoro-7-methyl-1-oxo-2,3,15a,16,17,18-hexahydro-1H,9H,15H-8,4-(azeno)-10,14-(metheno)pyrrolo[1,2-c][1,3]diazacycloheptadecin-16-yl]ethanesulfonamide]","ring closure, yield of all isomers (from CCS(=O)(=O)N[C@@H]1[C@H](Cc2cccc(Cc3nc(CN)ccc3C)c2F)NC[C@@H]1F, other bond, di(N-succinimidyl) carbonate / 4-methylmorpholine, DIPEA, THF, 4.1 mM, 25.0 °C, 17.0 h): 3.9%"
102,"Cc1ccc2nc1Oc1cccc(c1)C[C@H]1[C@@H](NS(C)(=O)=O)CCN1C(=O)CO2 [Example 33, N-[(15aS,16S)-7-methyl-1-oxo-1,2,15a,16,17,18-hexahydro-15H-4,8-(azeno)-10,14-(metheno)pyrrolo[1,2-d][1,12,4]dioxazacyclo-heptadecin-16-yl]methanesulfonamide]","ring closure, yield of all isomers (from Cc1ccc(OCC(=O)O)nc1Oc1cccc(C[C@@H]2NCC[C@@H]2NS(C)(=O)=O)c1, amide bond, PyBOP, THF, 0.92 mM, 25.0 °C, 12.0 h): 3.4%"
87,"Cc1ccc2nc1COc1cccc(c1F)C[C@H]1[C@@H](NS(C)(=O)=O)C(F)(F)CN1C(=O)NC2 [Example 54, N-[(16aS,17R)-18,18,21-trifluoro-7-methyl-1-oxo-2,3,16a,17,18,19-hexahydro-1H,9H,16H-4,8-(azeno)-11,15-(metheno)pyrrolo[2,1-h][1,9,11]oxadiazacyclo-octadecin-17-yl]methanesulfonamide]","ring closure, yield of all isomers (from Cc1ccc(CNC(=O)OC(C)(C)C)nc1COc1cccc(C[C@H]2[C@@H](NS(C)(=O)=O)C(F)(F)CN2C(=O)OC(C)(C)C)c1F, other bond, di(N-succinimidyl) carbonate / N-methylmorpholine, DIPEA, THF, 2.78 mM, 60.0 °C, 22.0 h, 2 steps): 14.4%"
103,"Cc1ccc2nc1Oc1cccc(c1F)C[C@H]1[C@@H](NS(C)(=O)=O)C(F)(F)CN1C(=O)NC2C (stereo partly drawn) [Example 51, N-[(15aS,16R)-17,17,20-trifluoro-3,7-dimethyl-1-oxo-2,3,15a,16,17,18-hexahydro-1H,15H-4,8-(azeno)-14,10-(metheno)pyrrolo[1,2-j][1,8,10]oxadiazacyclo-heptadecin-16-yl]methanesulfonamide (optical isomer)]","ring closure, yield of all isomers (from Cc1ccc(C(C)N)nc1Oc1cccc(C[C@@H]2NCC(F)(F)[C@@H]2NS(C)(=O)=O)c1F, other bond, di(N-succinimidyl) carbonate, THF, 1.23 mM, 60.0 °C): 7.7%"
107,"Cc1ccc2nc1Oc1cccc(c1)C[C@H]1[C@@H](NS(C)(=O)=O)CCN1C(=O)NC2 [Example 1, N-[(15aS,16S)-7-methyl-1-oxo-2,3,15a,16,17,18-hexahydro-1H,15H-4,8-(azeno)-10,14-(metheno)pyrrolo[1,2-j][1,8,10]oxadiazacyclo-heptadecin-16-yl]methanesulfonamide]","ring closure, yield of all isomers (from Cc1ccc(CN)nc1Oc1cccc(C[C@@H]2NCC[C@@H]2NS(C)(=O)=O)c1, other bond, CDI/DIPEA, DMF, 2.15 mM, 25.0 °C, 12.0 h): 29.9%"
104,"Cc1cc(F)c2nc1Oc1cccc(c1F)C[C@H]1[C@@H](NS(C)(=O)=O)C(F)(F)CN1C(=O)NC2 [Example 36, N-[(15aS,16R)-5,17,17,20-tetrafluoro-7-methyl-1-oxo-2,3,15a,16,17,18-hexahydro-1H,15H-4,8-(azeno)-14,10-(metheno)pyrrolo[1,2-j][1,8,10]oxadiazacyclo-heptadecin-16-yl]methanesulfonamide]","ring closure, yield of all isomers (from Cc1cc(F)c(CN)nc1Oc1cccc(C[C@@H]2NCC(F)(F)[C@@H]2NS(C)(=O)=O)c1F, other bond, di(N-succinimidyl) carbonate, THF, 2.95 mM, 60.0 °C, 1.5 h, 2 steps): 38.2%"
–,Cc1ccc2nc1Oc1cccc(c1F)C[C@H]1[C@@H](NC(=O)OCc3ccccc3)C(F)(F)CN1C(=O)NC2,"ring closure, yield of all isomers (from Cc1ccc(CN)nc1Oc1cccc(C[C@@H]2NCC(F)(F)[C@@H]2NC(=O)OCc2ccccc2)c1F, other bond, di(N-succinimidyl) carbonate, THF, 2.0 mM, 70.0 °C, 5.2 h): 78.8%"
103,"Cc1ccc2nc1Oc1cccc(c1)C[C@H]1[C@@H](NS(C)(=O)=O)CCN1C(=O)CC2 [Example 7, N-[(1S,19aS)-11-methyl-5-oxo-2,3,6,7,19,19a-hexahydro-1H, 5H-8,12-(azeno)-14,18-(metheno)pyrrolo[2,1-h][1,9]oxazacycloheptadecin-1-yl]methanesulfonamide]","ring closure, yield of all isomers (from Cc1ccc(CCC(=O)O)nc1Oc1cccc(C[C@@H]2NCC[C@@H]2NS(C)(=O)=O)c1, amide bond, PyBOP/TEA, THF, 0.231 mM, 25.0 °C, 4.0 h): 20%"
96,"Cc1ccc2nc1Oc1cccc(c1)C[C@H]1[C@@H](NS(C)(=O)=O)C(F)(F)CN1C(=O)NC2 [Example 2, N-[(15aS,16R)-17,17-difluoro-7-methyl-1-oxo-2,3,15a,16,17,18-hexahydro-1H,15H-4,8-(azeno)-10,14-(metheno)pyrrolo[1,2-j][1,8,10]oxadiazacyclo-heptadecin-16-yl]methanesulfonamide]","ring closure, yield of all isomers (from Cc1ccc(CN)nc1Oc1cccc(C[C@@H]2NCC(F)(F)[C@@H]2NS(C)(=O)=O)c1, other bond, CDI/DIPEA, DMF, 2.0 mM, 25.0 °C, 14.0 h): 7.6%"
102,"CCS(=O)(=O)N[C@@H]1[C@@H]2Cc3cccc(c3F)Oc3nc(ccc3C)CNC(=O)N2CC1(F)F [Example 5, N-[(15aS,16R)-17,17,20-trifluoro-7-methyl-1-oxo-2,3,15a,16,17,18-hexahydro-1H,15H-4,8-(azeno)-10,14-(metheno)pyrrolo[1,2-j][1,8,10]oxadiazacyclo-heptadecin-16-yl]ethanesulfonamide]","ring closure, yield of all isomers (from CCS(=O)(=O)N[C@@H]1[C@H](Cc2cccc(Oc3nc(CN)ccc3C)c2F)NCC1(F)F, other bond, di(N-succinimidyl) carbonate/4-methylmorpholine/DIPEA, THF, 1.81 mM, 25.0 °C, 12.0 h): 21%"
100,"O=C1NCc2ccc(Cl)c(n2)Oc2cccc(c2F)C[C@H]2[C@@H](NS(=O)(=O)C3CC3)C(F)(F)CN12 [Example 22, N-[(15aS,16R)-7-chloro-17,17,20-trifluoro-1-oxo-2,3,15a,16,17,18-hexahydro-1H,15H-4,8-(azeno)-14,10-(metheno)pyrrolo[1,2-j][1,8,10]oxadiazacyclo-heptadecin-16-yl]cyclopropanesulfonamide]","ring closure, yield of all isomers (from NCc1ccc(Cl)c(Oc2cccc(C[C@@H]3NCC(F)(F)[C@@H]3NS(=O)(=O)C3CC3)c2F)n1, other bond, di(N-succinimidyl) carbonate, THF, 1.85 mM, 25.0 °C, 0.08 h): 49.4%"
105,"Cc1ccc2nc1Oc1cccc(c1F)C[C@H]1[C@@H](NS(C)(=O)=O)C(F)(F)CN1C(=O)NC2 [Example 4, N-[(15aS,16R)-17,17,20-trifluoro-7-methyl-1-oxo-2,3,15a,16,17,18-hexahydro-1H,15H-4,8-(azeno)-10,14-(metheno)pyrrolo[1,2-j][1,8,10]oxadiazacyclo-heptadecin-16-yl]methanesulfonamide]","ring closure, yield of all isomers (from Cc1ccc(CN)nc1Oc1cccc(C[C@@H]2NCC(F)(F)[C@@H]2NS(C)(=O)=O)c1F, other bond, di(N-succinimidyl) carbonate/DIPEA, THF, 7.42 mM, 25.0 °C, 16.0 h): 40.1%"
107,"CCS(=O)(=O)N[C@H]1[C@@H](F)CN2C(=O)NCc3ncc(C)c(n3)Oc3cccc(c3F)C[C@@H]12 [Example 55, N-[(15aS,16R,17S)-17,20-difluoro-7-methyl-1-oxo-2,3,15a,16,17,18-hexahydro-1H,15H-4,8-(azeno)-10,14-(metheno)pyrrolo[1,2-j][1,5,8,10]oxatriazacyclo-heptadecin-16-yl]ethanesulfonamide]",–

# Source: patent publication US20240309016A1, “MACROCYCLIC HETEROCYCLE COMPOUNDS AND USE THEREOF” (TAKEDA PHARMACEUTICAL COMPANY LIMITED, priority 2023, published 2024)
